Data as given in patent publication US12391962B2, “Targeting peptide to deliver a compound to oocytes” (THE PENN STATE RESEARCH FOUNDATION, priority 2017, dated 2025).
Values joined by “and” are separate entries in the source; they are usually repeats but may differ in a detail not shown here. Equal values may be shown once. “Also recorded” adds a separate entry of the source.

Key:
[1] = tested on: kmo gene; assay: Paternal allele knockout by adult female injection: white eye females x wild-type males; type: in vivo, Aedes aegypti; conditions: EER co-injected with RNP; for altered offspring with the endosomal release reagent: females injected at 48-52 h PBF; for mosaic offspring per injected females with the endosomal release reagent: 48-52 h PBF, 1/20 females
From the text: After mating as described in the above, females (generation −1; G−1) were blood fed and injected with P2C-Cas9 RNPs and EERs. Resulting G0 offspring were screened for kmo gene editing phenotypes (white or mosaic eyes). Genomic DNA from identified individuals was extracted using DNeasy blood and tissue kits (Qiagen) and the region spanning both kmo 460 and 519* sites amplified by PCR using primers ZA2210 (5′TTC-AAG-ACC-AGG-CCT-CAA-TC3′) (SEQ ID NO: 35) and KmR1 (5′TCA-CTA-AAC-TCA-GCC-AGT-ATC-CTA-T3′) (SEQ ID NO: 36) and cloned into the pJET1.2 vector. A minimum of 6 clones per individual were randomly selected and sequenced.
In order to estimate the frequency of paternal gene editing, homozygous Wh-Iso8-kmo^460 females outcrossed to homozygous wild type males were injected at 48-52 h PBF. […] The region spanning the target sites from the mosaic individual collected from saponin treatment was cloned and sequenced (FIG. 10A). […] The genomic DNA from the monensin and spontaneous white eye individuals were not of suitable quality for PCR and cloning.

[2] = molecular target: T1, recombinant Cas9 (Streptococcus pyogenes serotype M1, UniProt Q99ZW2); assay: In vitro DNA cleavage assay; type: biochemical; conditions: gel separation
T1 construct: vector-derived additions of pET28a-Cas9-cys (the plasmid name implies an added Cys); made in house; host or cells: E. coli BL21 and Rosetta2 (DE3) pLysS
T1 sequence (Q99ZW2 whole entry): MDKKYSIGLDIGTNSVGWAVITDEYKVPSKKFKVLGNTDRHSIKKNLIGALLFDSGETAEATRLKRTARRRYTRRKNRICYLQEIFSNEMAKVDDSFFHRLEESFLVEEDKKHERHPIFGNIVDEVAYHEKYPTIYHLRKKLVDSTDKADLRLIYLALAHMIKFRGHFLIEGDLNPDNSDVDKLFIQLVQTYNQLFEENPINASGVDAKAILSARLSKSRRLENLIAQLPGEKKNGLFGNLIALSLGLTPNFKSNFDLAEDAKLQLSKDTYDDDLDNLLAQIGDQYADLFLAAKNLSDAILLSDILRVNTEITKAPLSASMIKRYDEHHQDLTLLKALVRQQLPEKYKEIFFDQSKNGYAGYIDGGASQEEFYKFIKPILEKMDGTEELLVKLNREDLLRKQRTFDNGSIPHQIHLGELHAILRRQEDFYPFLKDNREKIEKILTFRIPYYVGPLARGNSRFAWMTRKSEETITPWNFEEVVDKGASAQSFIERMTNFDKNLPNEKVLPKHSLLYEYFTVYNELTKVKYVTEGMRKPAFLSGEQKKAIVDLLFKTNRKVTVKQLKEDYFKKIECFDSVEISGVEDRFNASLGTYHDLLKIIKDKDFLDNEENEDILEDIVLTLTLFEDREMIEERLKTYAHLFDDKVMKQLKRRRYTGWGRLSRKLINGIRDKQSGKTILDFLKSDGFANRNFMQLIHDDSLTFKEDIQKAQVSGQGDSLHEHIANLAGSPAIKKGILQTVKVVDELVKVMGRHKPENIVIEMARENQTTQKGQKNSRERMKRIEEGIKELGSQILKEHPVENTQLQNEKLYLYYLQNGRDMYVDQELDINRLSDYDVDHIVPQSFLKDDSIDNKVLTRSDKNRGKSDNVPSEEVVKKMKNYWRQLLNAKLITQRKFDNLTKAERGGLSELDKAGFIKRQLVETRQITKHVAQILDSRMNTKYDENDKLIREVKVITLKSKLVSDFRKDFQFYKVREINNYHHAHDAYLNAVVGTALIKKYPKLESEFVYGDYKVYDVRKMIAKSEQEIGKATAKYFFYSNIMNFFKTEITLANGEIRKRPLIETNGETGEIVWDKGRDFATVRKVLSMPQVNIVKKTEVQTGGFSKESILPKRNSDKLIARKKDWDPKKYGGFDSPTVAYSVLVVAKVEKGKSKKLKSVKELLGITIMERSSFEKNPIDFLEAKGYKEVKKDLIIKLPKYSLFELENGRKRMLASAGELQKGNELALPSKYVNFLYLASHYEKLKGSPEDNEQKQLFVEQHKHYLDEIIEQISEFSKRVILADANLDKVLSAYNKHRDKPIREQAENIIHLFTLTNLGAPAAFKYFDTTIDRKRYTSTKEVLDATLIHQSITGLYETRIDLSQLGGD
Description: Reactions were performed for 1 h at 37° C. and diagnostic bands visualized by electrophoresis in a 1% agarose/TAE gel.

[3] = tested on: Ae. aegypti females; assay: LD50 of endosomal escape reagents injected into the hemolymph 24h PBF; conditions: injected into the hemolymph of females 24h PBF; 100 females injected
[4] = tested on: Bemisia tabaci ovaries; assay: Transduction of mCherry into ovaries with vitellogenin-derived targeting peptide; type: in vivo; conditions: injection into adult females
From the text: (§1) Several targeting peptides, including […] (Bemisia tabaci, SEQ ID NO: 26), […] (Bombus impatiens, SEQ ID NO: 27), […] (Ixodes scapularis, SEQ ID NO: 28), or […] (Danio rerio, SEQ ID NO: 29), were further validated. The DNA encoding these peptides were synthesized, fused to the fluorescent reporter proteins GFP or mCherry (with a HIS tag to aid in purification), and cloned into pET28. The plasmids were then transformed into E. coli BL21 (NEB) and Rosetta2™ (DE3) pLysS competent cells, with the transformation being verified by […].
(§2) To induce expression of the recombinant protein, a preculture was grown overnight at 30° C. in 50 mL of Luria Broth (LB) supplemented with […] chloramphenicol and […] kanamycin. After 12 hours, 10 mL of preculture was transferred to 900 mL of LB supplemented with the same antibiotics, incubated at 37° C. until OD=0.6. Then 0.05 mM isopropyl β-D-1-thiogalactopyranoside (IPTG) was added and the culture incubated overnight at 30° C.
(§3) Cells were spun down at >10,000×g for 15 min, resuspended in 50 mL lysis buffer (20 mM Tris-HCl, pH 8.0, 300 mM NaCl, 20 mM imidazole), placed at −80° C. overnight and incubated with lysozyme (1 mg/ml) and 100 ppm of […] (PMSF) for 30 min at 4° C. The suspension was sonicated 5 times at 60% duty 5 seconds pulse 5 seconds rest (two aliquots each 20 mL), centrifuged at 13,000×g for 30 min, the supernatant removed and incubated with Ni-NTA beads (Qiagen) with rotation at 4° C. overnight. Beads were washed 3 times with 10 mL lysis buffer and eluted with 1 mL elution buffer (20 mM Tris-HCl, pH 8.0, 300 mM NaCl, 250 mM imidazole) 10 times. Eluted protein was dialyzed in a Slide-A-Lyzer dialysis cassette (Thermo Fisher) for two hours in dialysis buffer (50 mM Tris-HCl, pH 8.0, 300 mM KCl, 0.1 mM EDTA, 0.5 mM PMSF) and buffer changed every 2 hours, for 2 times, then left overnight at 4° C. with gentle agitation in fresh buffer, Protein purity was visualized by SDS-PAGE and concentration estimated using Bradford assay. […]

[5] = tested on: Danio rerio ovaries; assay: Transduction of EGFP into ovaries with vitellogenin-derived targeting peptide; type: in vivo; conditions: injection into adult females
From the text: as §1, §2
Cells were spun down at >10,000×g for 15 min, resuspended in 50 mL lysis buffer (20 mM Tris-HCl, pH 8.0, 300 mM NaCl, 20 mM imidazole), placed at −80° C. overnight and incubated with lysozyme (1 mg/ml) and 100 ppm of […] (PMSF) for 30 min at 4° C. […]

[6] = tested on: Ixodes scapularis ovaries; assay: Transduction of mCherry into ovaries with vitellogenin-derived targeting peptide; type: in vivo; conditions: injection into adult females
From the text: as §1, §2, §3

[7] = tested on: B. tabaci white gene; assay: Knockout of the B. tabaci white gene by ReMOT Control (adult female injection); type: in vivo, Bemisia tabaci
Description: The females were injected and placed on a piece of soybean leaflet in a petri dish with a moist paper towel wrapped around the stem and another paper towel on the bottom plate to prolong the life of the leaflet. Water and liquid fertilizer were added as needed. Females were removed from the leaflet 2 weeks post injection. The petri dishes were incubated at 28° C., 16L/8D cycle, in a humidified Heratherm IMH750-S reach-in chamber, and the progeny of injected females screened visually for altered eye color in nymphs or adults using an Olympus SZX7 stereomicroscope. Mutations in insects showing altered eye color were confirmed by PCR using PHIRE Tissue Direct PCR Master Mix (Thermo Fischer Scientific), the amplicon was cloned into pJET1.2, and clones were submitted for Sanger sequencing.
For proof of principle gene editing experiments, we chose the white gene, which is an ABC transporter protein responsible for transport of ommochrome pigments into the eyes.

[8] = tested on: mealybug ovaries; assay: P2C-mediated delivery of EGFP to mealybug ovaries; type: in vivo; conditions: procedure of Example 1
Description: To determine if P2C could be used in to deliver cargo in species other than mosquito, it was tested on mealybugs using the procedure of Example 1. […] Therefore, P2C is an effective targeting molecule in more than just mosquitoes.

[9] = tested on: Anopheles gambiae oocytes; assay: Ovary uptake of EGFP fusion proteins after injection into blood-fed females (fluorescence microscopy); type: in vivo
Description: To show DmYP1 (or fragments thereof) act as suitable ligands to deliver protein cargo into mosquito oocytes, a DmYP1-EGFP, or fragments of DmYP1-EGFP, fusion protein was expressed and injected into the thorax of Anopheles gambiae females 12 and 24 h post-blood feeding (PBF).
Injections were performed with an aspirator tube assembly (A5177, Sigma) fitted with a glass capillary needle. Adult females were immobilized at 4° C. following a bloodmeal and kept on ice during injection. Females were injected intrathoracically until no additional fluid would enter, at an approximate volume of 200 nl per female. To visually confirm EGFP in the ovaries following injection, ovaries were dissected, mounted in saline buffer mixed with SlowFade Gold® antifade reagent (Invitrogen), covered with a coverslip and imaged on an Olympus BX41 epifluorescent microscope. Negative controls were injected with recombinant EGFP lacking a targeting ligand.
A deletion analysis of the DmYP1 protein was conducted to identify the smaller region that efficiently transduced cargo into mosquito ovaries. Three portions of approximately 120 amino acids (FIG. 1) were encoded on an expression plasmid linked to EGFP via a Glycine-Serine linker. Fusion proteins included the DmYP1 secretion signal at the N-terminus. The construct was inserted into the plasmid pAc5-STABLE1-Neo under control of the Drosophila Actin5C promoter. Plasmids were transfected into Drosophila S2 cells using Lipofectamine® LTX WITH Plus™ Reagent (ThermoFisher). Cell culture supernatant was collected 72 hours post-transfection, concentrated 100× using Amicon® and Centricon® Plus-70 centrifugal filter devices (Millipore) and injected into female An. gambiae 12 and 24 hours PBF. Ovaries were dissected 12, 24 and 48 h hours post-injection, dissected and visualized for EGFP fluorescence. EGFP fusion protein fused to the full length DmYP1 protein (439 amino acids) was used as a positive control, while recombinant EGFP without a targeting ligand was used as a negative control.

[10] = tested on: Aedes aegypti ovaries; assay: Transduction of mCherry into ovaries with vitellogenin-derived targeting peptide; type: in vivo; conditions: injection into adult females
[11] = tested on: Bombus impatiens ovaries; assay: as above; type: in vivo; conditions: injection into adult females
From the text: as §1, §2, §3

[12] = injection 12 h PBF, Total of 2 replicates
[13] = injection 24 h PBF, Total of 2 replicates

Cl.N [Ammonium Chloride]
altered offspring with the endosomal release reagent [1]: no altered offspring

CCN(CC)CCCC(C)Nc1ccnc2cc(Cl)ccc12 (stereo not drawn) [Chloroquine]
effect on Cas9 cleavage function in vitro [2]: did not affect Cas9 cleavage function in vitro | effect on Cas9 cleavage function in vitro ([2]; listed as chloroquine): not inhibited | altered offspring with the endosomal release reagent [1]: no altered offspring

CC[C@@]1([C@@H]2O[C@@H]([C@H]3O[C@@](O)(CO)[C@H](C)C[C@@H]3C)C[C@@H]2C)CC[C@H]([C@]2(C)CC[C@]3(C[C@H](O)[C@@H](C)[C@@H]([C@@H](C)[C@@H](OC)[C@H](C)C(=O)O)O3)O2)O1 [Monensin]
LD50 [3]: 1.0 mM | mosaic offspring per injected females with the endosomal release reagent [1]: 5%

O=C(N/N=C/c1ccc(O)c(O)c1)c1cc2ccccc2cc1O [dynasore]
altered offspring with the endosomal release reagent [1]: no altered offspring

DIVKTTNY
transduction of mCherry protein into ovaries [4]: transduced into developing vitellogenic eggs

IVTKSKDL
transduction of EGFP protein into ovaries [5]: transduced into developing vitellogenic eggs

NFTKTKNY
transduction of mCherry protein into ovaries [6]: transduced into developing vitellogenic eggs

NLQQQRQHGKNGNQDYQDQSNEQRKNQRTSSEEDYSEEVKN (Drosophila melanogaster) [P2C]
gene editing outcome by targeting peptide (in words) ([7]; Cas9 RNP injections, with or without saponin): did not function robustly; also recorded: did not result in any visibly edited offspring; also recorded: did not generate knockouts | delivery of EGFP into eggs [8]: able to specifically deliver EGFP into the developing vitellogenic eggs, but not the immature eggs | localization of transduced EGFP ([9]; embryo development): observed in yolk granules (arrows) throughout embryo development | ovary uptake / delivery of EGFP in deletion analysis of DmYP1 ([9]; fragments expressed as EGFP fusion proteins): contained the RBR; also recorded: fully sufficient to deliver EGFP to Anopheles oocytes | dose dependence of P2C-mediated transduction of EGFP ([9]; injected 12 h, ovaries dissected 24 h PBF): dose-dependent

QVTKTQNF
transduction of mCherry protein into ovaries [10]: transduced into developing vitellogenic eggs

RKSKNFDK
transduction of mCherry protein into ovaries [11]: transduced into developing vitellogenic eggs

Saponin [reference compound]
effect of saponin as endosome escape reagent on editing ([7]; higher concentrations (8, 16 μg/mL)): inhibitory; also recorded: detrimental to the process | LD50 [3]: 0.024 mM | mosaic offspring per injected females with the endosomal release reagent [1]: 5%

B1: DmYP1-EGFP: fusion protein of full length Drosophila melanogaster Yolk Protein 1 (439 amino acids) with EGFP (protein)
chain: PNGRMDNSVNQALKPSQWLSGSQLEAIPALDDFTIERLENMNLERGAELLQQVYHLSQIHHNVEPNYVPSGIQVYVPKPNGDKTVAPLNEMIQRLKQKQNFGEDEVTIIVTGLPQTSETVKKATRKLVQAYMQRYNLQQQRQHGKNGNQDYQDQSNEQRKNQRTSSEEDYSEEVKNAKTQSGDIIVIDLGSKLNTYERYAMLDIEKTGAKIGKWIVQMVNELDMPFDTIHLIGQNVGAHVAGAAAQEFTRLTGHKLRRVTGLDPSKIVAKSKNTLTGLARGDAEFVDAIHTSVYGMGTPIRSGDVDFYPNGPAAGVPGASNVVEAAMRATRYFAESVRPGNERSFPAVPANSLQQYKQNDGFGKRAYMGIDTAHDLEGDYILQVNPKSPFGRNAPAQKQSSYHGVHQAWNTNQDSKDYQ
modifications: left off: small tags and cut ends; large carriers
notes: fusion protein of full length Drosophila melanogaster Yolk Protein 1 (439 amino acids) with EGFP
% Follicles (Efficiency) ([9]; injection 12 h PBF): 100% and 98% | N Follicles with EGFP ([9]; injection 12 h PBF): 243 and 381 | N (showing EGFP in follicles) ([9]; injection 12 h PBF, 20 females injected per replicate): 17 and 19 | % Follicles (Efficiency) [9, 12]: 99.7%^ | N Follicles with EGFP [9, 12]: 624 | N (showing EGFP in follicles) ([9]; injection 12 h PBF, Total of 2 replicates, 40 injected): 36 | % Follicles (Efficiency) ([9]; injection 24 h PBF): 98% and 99% | N Follicles with EGFP ([9]; injection 24 h PBF): 245 and 197 | N (showing EGFP in follicles) ([9]; injection 24 h PBF, 20 females injected per replicate): 18 and 17 | % Follicles (Efficiency) [9, 13]: 98.2%^ | N Follicles with EGFP [9, 13]: 442 | N (showing EGFP in follicles) ([9]; injection 24 h PBF, Total of 2 replicates, 40 injected): 35 | primary oocytes with EGFP visualized ([9]; regardless of the timing of the injection, ovaries dissected 24-72 h PBF): 90-100%
